From ChEMBL document CHEMBL1201862, “PubChem BioAssay data set” (2004) come the findings set out here.

The source made the active and inactive calls.

For orientation: EC50 means the concentration needed to bring the measured effect to its halfway point. The term AC50 denotes the concentration giving half of the maximal activity seen. Usually IC50 stands for the concentration that gives 50% inhibition.

The nature of test [1]: NIH-3T3 fibroblast cytotoxicity, dose response, cytotoxicity control, cell-based, fluorescence, Alamar Blue, secondary assay (AID 2327).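 Also: NIH-3T3 mouse fibroblasts cultured with fluconazole at 8 µg/mL.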 In kind it is functional. A general note: Resazurin is reduced to fluorescent resorufin, in cell work by metabolically active cells.
The nature of test [2]: C. albicans growth with fluconazole, confirmation, fluorescence, retest (AID 2467). In kind it is functional, cell-based.
The target in test [3] is T1, Serine/threonine-protein phosphatase (Candida dubliniensis (strain CD36 / CBS 7987 / NCPF 3949 / NRRLY-17841) (Yeast), UniProt B9W6M3).
T1 sequence (B9W6M3 whole entry): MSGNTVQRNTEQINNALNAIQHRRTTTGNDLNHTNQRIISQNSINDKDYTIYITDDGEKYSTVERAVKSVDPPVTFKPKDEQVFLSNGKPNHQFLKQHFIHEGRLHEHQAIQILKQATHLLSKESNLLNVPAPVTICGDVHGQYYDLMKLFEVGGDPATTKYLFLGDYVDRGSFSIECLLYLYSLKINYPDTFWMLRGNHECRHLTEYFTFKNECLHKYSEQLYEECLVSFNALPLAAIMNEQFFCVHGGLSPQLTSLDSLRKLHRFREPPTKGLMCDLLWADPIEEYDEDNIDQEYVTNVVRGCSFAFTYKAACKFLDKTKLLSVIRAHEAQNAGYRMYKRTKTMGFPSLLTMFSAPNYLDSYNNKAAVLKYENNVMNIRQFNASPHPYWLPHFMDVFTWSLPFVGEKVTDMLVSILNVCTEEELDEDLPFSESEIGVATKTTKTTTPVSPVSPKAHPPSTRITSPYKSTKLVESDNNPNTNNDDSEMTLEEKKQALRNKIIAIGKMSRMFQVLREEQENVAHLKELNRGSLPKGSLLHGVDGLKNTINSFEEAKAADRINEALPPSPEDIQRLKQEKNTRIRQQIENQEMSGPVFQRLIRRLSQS
Briefly: calcineurin pathway inhibitors in yeast reporter, dose response, S. cerevisiae, CDRE-lacZ, luminescence, secondary (AID 2388).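 Also: yeast reporter cells carrying a calcineurin-responsive lacZ construct stimulated with calcium chloride; luminescent beta-galactosidase reporter signal in whole cells rather than isolated phosphatase activity; potency for inhibition where a drop in reporter signal means calcineurin blockade.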 In kind it is functional, cell-based.

For test [4], the target named is T1, Serine/threonine-protein phosphatase. Nature of the test: Fluorescence Cell-Based Secondary Assay to Identify Inhibitors of Calcineurin. [Related pubchem assays (depositor defined):AID1979, AID2007]. The class given is functional.
Test [5] has as its target ATP-dependent molecular chaperone HSP82 (Candida albicans (strain WO-1) (Yeast), UniProt C4YTQ8). Nature of the test: loss of DOC-induced GRE-beta-galactosidase reporter signal, dose response, Hsp90 inhibitor project, S. cerevisiae, luminescence (AID 2400).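 Also: beta-galactosidase luminescence from glucocorticoid response element reporter as proxy for Hsp90 function; inhibitor potency where signal loss means Hsp90 inhibition.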 In kind it is functional, cell-based.
Test [6] can be described thus: SFLLRN-induced P-Selectin Platelet Surface Expression Measured in Cell-Based System Using Flow Cytometry - 2016-03_Inhibitor_Dose_DryPowder_Activity_Set3. [Related pubchem assays (depositor defined):AID1678]. The class given is functional. On the technique in general: Flow cytometry measures light scatter and fluorescence of single cells or particles in a stream.
Test [7] can be described thus: blockers of SFLLRN-triggered platelet ATP secretion – cell-based, human platelets, luminescence, dry powder, dose response (AID 493100). In kind it is functional.
The nature of test [8]: Luminescence Cell-Based Dose Response Follow up to Identify Inhibitors of Platelet Dense Granule Release. [Related pubchem assays (depositor defined):AID1663, AID1678, AID1889, AID2519]. In kind it is functional.
A short description of test [9]: insulin promoter down-regulators in MIN6 cells, imaging, high-content screening, mouse beta cells (AID 1628). The class given is functional.
Test [10] can be described thus: cytotoxicity in MIN6 insulinoma cells, dose response, cytotoxicity control, cell-based, mouse insulinoma (AID 2122).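 Also: confirmatory high-throughput counterscreen run to flag cytotoxic compounds; mouse MIN-6 beta cells carrying an insulin promoter eGFP reporter.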 The class given is functional.
A further test has as its system Jurkat. Briefly: antigen receptor-induced NF-kB inhibitors, dose response, Jurkat, luciferase reporter, luminescence, B- and T-cell (AID 489004).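 Also: NF-kB luciferase reporter Jurkat cells stimulated with PMA plus ionomycin.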 The class given is functional, cell-based. The conditions noted are these: Homo sapiens. On the technique in general: A reporter such as luciferase makes a cellular process visible.
Test [11] can be described thus: cytotoxicity in HEK-293T NF-kB-Luc cells, dose response, cytotoxicity control for B/T-cell NF-kB inhibitor project, cell-based, uHTS hits (AID 489019).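 Also: IC50 reflects cytotoxicity as loss of cell viability.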 In kind it is functional.
A further test concerns INS1. Briefly: beta cell apoptosis inhibitors, cytokine rescue, dose response, luminescence, retest (AID 449756).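 Also: cell death triggered by IL-1 beta plus TNF-alpha plus IFN-gamma mixture; protective hits raise ATP signal compared with cytokine alone wells.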 The class given is functional, cell-based. As to conditions: Rattus norvegicus.
Test [12] is described as follows: Shn3 3'UTR reporter inhibitors, dose response, cell-based, Clone20 osteoblasts, firefly luciferase, cherry-picked (AID 624132).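 Also: firefly luciferase luminescence from reporter carrying the Shn3 3'UTR in osteoblasts.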 The class given is functional.
Test [13] can be described thus: HepG2 cell cytotoxicity, dose response, cytotoxicity control for Shn3 inhibitor project, CellTiter-Glo, cherry-picked (AID 624134). In kind it is functional, cell-based.
A short description of test [14]: control 3'UTR Renilla luciferase suppression, dose response, counter-screen for Shn3 inhibitor project, cell-based, Clone20-Shn3RL, cherry-picked (AID 624133). The class given is functional.
Test [15] deals with COUP transcription factor 2 (Homo sapiens, UniProt P24468). Nature of the test: Luminescence-based cell-based high throughput dose response assay to identify inhibitors of COUP-TFII (NR2F2). In kind it is functional.
Test [16] is described as follows: reduction of Shn3 3'UTR firefly luciferase signal, dose response, Schnurri-3 inhibitor project, cell-based, Clone20 osteoblasts, cherry-pick, set 2 (AID 720490).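 Also: actives lower the luminescence signal as inhibitors.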 The class given is functional.
In test [17] the test system is HEK293. Nature of the test: NOD1 signaling inhibitors, primary screen, cell-based, luminescence, uHTS (AID 1578). The class given is functional. As to conditions: Homo sapiens.
Test [18] deals with HEK293. Briefly: cells. In kind it is functional, cell-based. The conditions noted are these: Homo sapiens.
For test [19], the system named is HEK293. Briefly: cells. The class given is functional, cell-based. The conditions noted are these: Homo sapiens. This is another data set of the same source.
In test [20] the target is Nucleotide-binding oligomerization domain-containing protein 2 (Homo sapiens, UniProt Q9HC29). Nature of the test: NOD2 signaling inhibitors, cell-based, luminescence, uHTS, HEK293 (AID 1566). In kind it is functional.
The subject of test [21] is HEK293. Nature of the test: NOD2 signaling inhibitors in MDP-stimulated cells, cell-based, uHTS, luminescence (AID 2001). The class given is functional. The conditions noted are these: Homo sapiens.
Test [22] deals with HEK293. Nature of the test: cells. The class given is functional, cell-based. The conditions noted are these: Homo sapiens. This is another data set of the same source.
Test [23] can be described thus: inhibitors of HIV Env-driven cell fusion, dose response, cherry-pick (AID 652057). The class given is functional, cell-based.
The nature of test [24]: ZM109 Env clade C HIV-1 fusion inhibitors, dose response, HeLa effector, CEM target cells, luciferase, cherry-pick (AID 652058). The class given is functional, cell-based.
Test [25] in a line: off-target signal loss in HeLa-CEM21 co-culture – HeLa F-luc CTL cells, cherry-picked, counter-screen for HIV-1 Env fusion inhibitor project, dose response (AID 652040).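 Also: potency for signal decrease marking cytotoxic or nonspecific inhibition.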 In kind it is functional, cell-based.
Test [26] in a line: inhibitors of clade B AD8 Env fusion, dose response, cell-based, cherry-pick (AID 652062).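 Also: luciferase signal from cell-cell fusion driven by HIV-1 clade B AD8 Env; potency is for inhibitors of fusion seen as a drop in luminescence.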 The class given is functional.
In test [27] the test system is HEK293. Nature of the test: cells. The conditions noted are these: Homo sapiens.
The subject of test [28] is HEK293. Briefly: cells. As to conditions: Homo sapiens. The source holds these as a separate data set.

Chain of COUP transcription factor 2 (P24468 whole entry): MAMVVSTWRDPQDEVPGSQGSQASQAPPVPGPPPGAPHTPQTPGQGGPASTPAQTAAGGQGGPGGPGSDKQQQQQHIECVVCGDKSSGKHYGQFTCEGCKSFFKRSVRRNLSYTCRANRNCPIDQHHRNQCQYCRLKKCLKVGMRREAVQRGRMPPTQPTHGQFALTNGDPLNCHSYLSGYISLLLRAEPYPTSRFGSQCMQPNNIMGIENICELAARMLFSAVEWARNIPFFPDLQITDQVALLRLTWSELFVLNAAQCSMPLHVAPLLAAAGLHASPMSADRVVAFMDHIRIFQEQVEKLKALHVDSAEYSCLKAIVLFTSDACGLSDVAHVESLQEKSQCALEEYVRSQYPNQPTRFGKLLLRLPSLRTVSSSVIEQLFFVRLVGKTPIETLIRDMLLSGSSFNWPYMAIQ
Chain of Nucleotide-binding oligomerization domain-containing protein 2 (Q9HC29 whole entry, the tested form may be a part): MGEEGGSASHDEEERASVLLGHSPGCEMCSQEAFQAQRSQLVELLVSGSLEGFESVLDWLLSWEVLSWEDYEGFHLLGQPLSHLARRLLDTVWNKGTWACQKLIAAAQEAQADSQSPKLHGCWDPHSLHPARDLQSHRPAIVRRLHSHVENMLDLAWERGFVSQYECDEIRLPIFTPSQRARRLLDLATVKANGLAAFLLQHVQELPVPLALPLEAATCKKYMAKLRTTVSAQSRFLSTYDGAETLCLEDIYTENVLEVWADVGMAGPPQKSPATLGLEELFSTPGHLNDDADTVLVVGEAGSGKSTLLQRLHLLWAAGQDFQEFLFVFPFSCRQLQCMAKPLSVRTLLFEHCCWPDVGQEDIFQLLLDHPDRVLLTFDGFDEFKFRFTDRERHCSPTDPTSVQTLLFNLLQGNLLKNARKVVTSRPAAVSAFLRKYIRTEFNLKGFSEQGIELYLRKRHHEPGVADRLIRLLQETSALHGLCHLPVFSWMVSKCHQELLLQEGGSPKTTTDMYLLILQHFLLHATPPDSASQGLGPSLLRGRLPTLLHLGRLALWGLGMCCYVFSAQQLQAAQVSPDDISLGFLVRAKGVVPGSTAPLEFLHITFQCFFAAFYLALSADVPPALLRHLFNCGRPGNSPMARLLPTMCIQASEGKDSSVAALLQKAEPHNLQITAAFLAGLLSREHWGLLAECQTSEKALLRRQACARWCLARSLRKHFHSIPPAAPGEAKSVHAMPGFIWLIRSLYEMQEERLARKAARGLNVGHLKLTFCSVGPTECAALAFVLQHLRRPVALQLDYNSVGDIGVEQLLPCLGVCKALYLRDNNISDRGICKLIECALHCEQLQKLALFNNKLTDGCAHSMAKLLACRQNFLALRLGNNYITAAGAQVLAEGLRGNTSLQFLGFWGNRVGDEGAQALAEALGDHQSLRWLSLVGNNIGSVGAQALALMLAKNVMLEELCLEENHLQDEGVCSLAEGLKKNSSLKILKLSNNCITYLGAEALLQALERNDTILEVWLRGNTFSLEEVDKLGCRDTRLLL
Chain of ATP-dependent molecular chaperone HSP82 (C4YTQ8 whole entry): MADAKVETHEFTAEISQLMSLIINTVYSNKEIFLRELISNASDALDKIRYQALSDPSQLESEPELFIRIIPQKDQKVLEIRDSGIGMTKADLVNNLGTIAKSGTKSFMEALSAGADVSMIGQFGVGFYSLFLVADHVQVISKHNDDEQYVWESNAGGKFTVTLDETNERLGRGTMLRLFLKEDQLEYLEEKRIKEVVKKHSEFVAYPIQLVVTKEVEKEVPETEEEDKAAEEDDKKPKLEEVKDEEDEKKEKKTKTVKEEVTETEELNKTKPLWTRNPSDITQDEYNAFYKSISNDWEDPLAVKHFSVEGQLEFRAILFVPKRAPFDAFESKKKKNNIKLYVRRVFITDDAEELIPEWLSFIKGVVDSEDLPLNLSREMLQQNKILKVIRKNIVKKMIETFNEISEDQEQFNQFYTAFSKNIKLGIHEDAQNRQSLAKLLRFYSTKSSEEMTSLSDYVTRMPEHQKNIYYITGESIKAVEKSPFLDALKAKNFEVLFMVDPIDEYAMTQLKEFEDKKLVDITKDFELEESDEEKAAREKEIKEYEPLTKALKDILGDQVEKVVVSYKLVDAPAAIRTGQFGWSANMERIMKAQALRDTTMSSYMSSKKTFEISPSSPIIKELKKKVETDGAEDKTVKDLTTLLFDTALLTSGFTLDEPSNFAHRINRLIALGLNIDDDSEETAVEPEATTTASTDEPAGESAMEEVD

On to `COc1ccc(-n2nc(C(=O)NCC(=O)N3CCN(c4ccccc4)CC3)c3ccccc3c2=O)c(OC)c1`, for which the EC50 in [1] is > 160 µM (inactive); in [2] it was 0.819 µM (active); in test [3] it was > 180 µM (inactive); in [4] it was > 285 µM (inactive); in test [5], > 160 µM (inactive).

Consider `COc1ccc(C(=O)Nc2cccc(NC(C)=O)c2)cc1`, for which the AC50 in test [6] is 3.53 µM (active); in test [7], 12.8 µM (active). Besides, the EC50 in test [8] was 3.96 µM (active).

`Cn1nc(CC(=O)Nc2ccc3c(c2)OCCO3)c2ccccc2c1=O`: the IC50 is 0.797 µM (active) in test [9]; 0.552 µM (active) in test [10]; > 80 µM (inactive) in the test with Jurkat; > 80 µM (inactive) in [11]; 6.56 µM (active) in test [15]. Further, the AC50 with INS1 was 2.77 µM (active); in [12], 0.899 µM (active); in [13] it was 55.8 µM (active); in test [14], 3.62 µM (active); in test [16], 1.36 µM (active).

Take `CC(=O)c1ccc(Nc2nc3ccccc3nc2NS(=O)(=O)c2cccs2)cc1`: the EC50 in the test on HEK293 [17] was 8.18 µM (active); in test [20], 6.47 µM (active). Also, the IC50 with HEK293 [18] is 15.6 µM (active); in the test on HEK293 [19], > 20 µM (inactive); in the test with HEK293 [21] it was 9.59 µM (active); in the test on HEK293 [22], > 20 µM (inactive).

Turning to `COc1ccc(Cl)cc1CC1(C)C(=O)Nc2ccc(S(=O)(=O)NC3CCCCC3)cc21` (stereo not given), the AC50 in [23] was 0.749 µM (active); in test [24], 0.768 µM (active); in test [25], 1.07 µM (active); in test [26] it was 3.04 µM (active). Besides, the EC50 with HEK293 [27] and with HEK293 [28] was > 59.6 µM (inactive) each time.
